In patent US5872130A, “Quinoline type mevalonoactones” (Nissan Chemical Industries Ltd., priority 1988, dated 1999):

Tested on: cholesterol biosynthesis
Test: Test A: Inhibition of cholesterol biosynthesis from acetate in vitro (rat liver microsome and sup fraction)
Format: biochemical, male Wistar rat
Details: based on the activities of CS-514 being evaluated to be 1
Method: Test A: Inhibition of cholesterol biosynthesis from acetate in vitro
Enzyme solution was prepared from liver of male Wistar rat billialy cannulated and discharged bile for over 24 hours. Liver was cut out at mid-dark and microsome and supernatant fraction which was precipitable with 40-80% of saturation of ammonium sulfate (sup fraction) were prepared from liver homogenate according to the modified method of Knauss et al; Kuroda, M, et al, Biochim. Biophys. Acta, 489, 119 (1977). For assay of cholesterol biosynthesis, microsome (0.1 mg protein) and sup fraction (1.0 mg protein) were incubated for 2, hours at 37° C. in 200 μl of the reaction mixture containing ATP; 1 mM, Glutathione; 6 mM, Glucose-1-phosphate; 10 mM, NAD; 0.25 mM, NADP; 0.25 mM, CoA; 0.04 mM and 0.2 mM [2-^14 C]sodium acetate (0.2 μCi) with 4 μl of test compound solution dissolved in water or dimethyl sulfoxide. To stop reaction and saponify, 1 ml of 15% EtOH-KOH was added to the reactions and heated at 75° C. for 1 hour. […] Inhibitory activity of compounds was indicated with IC50.

Structure (SMILES) | Relative activities by Test A
CCOC(=O)CC(O)CC(O)/C=C/c1c(CC)nc2ccccc2c1-c1ccc(F)cc1 (centres unmarked) [I-117] | 0.37
CC(C)c1nc2c(Cl)cc(Cl)cc2c(-c2ccc(F)cc2)c1/C=C/C(O)CC(O)CC(=O)O (centres unmarked) [I-522] | 0.76
